# Measurements: patent publication US12576253B2, “Drug delivery device with intravesical tolerability” (priority 2009, dated 2026)
# Conditions: two six-day rabbits (4 mg device), spinal cord puncture at L7 just prior to euthanasia
smiles,measurement,value
CCN(CC)CC(=O)Nc1c(C)cccc1C [lidocaine],lidocaine in cerebrospinal fluid,not detected
